Results taken from patent US5422350A, “Nitrogen substituted acridine and cytochrome P450 inhibitors and methods of use” (priority 1992, dated 1995).
Where two headings read alike, the source gives them in different places.

Experiments:
P450 2D6 = assay: Tacrine as substrate of P450 2D6: co-incubation with quinidine in human liver microsomes; format: in vitro ADME; settings: for 1-Hydroxytacrine / Tacrine: quinidine -
Excerpt: U. A. Meyer, J. Gut, T. Kronbach, C. Skoda, U. T. Meier, and T. Catin, "The Molecular Mechanisms of Two Common Polymorphisms of Drug Oxidation-Evidence for Functional Changes in Cytochrome P-450 Isozymes Catalysing Bufuralol and Mephenytoin Oxidation", XENOBIOTICA, Vol 16, pp 449-464 (1986). […] PHARMACOL., Vol 37, pp 155-160 (1989).

P450 1A2 [1] = assay: in vitro
Protocol: (§1) PHARMACOL., Vol. 42, pp. 767-772 (1990) was conducted. […] The effect of various enoxacin concentrations (8, 20, and 50 μM) on the extent of irreversible binding was examined in a separate study.

P450 1A2 [2] = target: T1, P450 1A2 (Homo sapiens, UniProt P05177); assay: in vitro; settings: human, microsomes
T1 sequence (P05177 2-516 limits assumed): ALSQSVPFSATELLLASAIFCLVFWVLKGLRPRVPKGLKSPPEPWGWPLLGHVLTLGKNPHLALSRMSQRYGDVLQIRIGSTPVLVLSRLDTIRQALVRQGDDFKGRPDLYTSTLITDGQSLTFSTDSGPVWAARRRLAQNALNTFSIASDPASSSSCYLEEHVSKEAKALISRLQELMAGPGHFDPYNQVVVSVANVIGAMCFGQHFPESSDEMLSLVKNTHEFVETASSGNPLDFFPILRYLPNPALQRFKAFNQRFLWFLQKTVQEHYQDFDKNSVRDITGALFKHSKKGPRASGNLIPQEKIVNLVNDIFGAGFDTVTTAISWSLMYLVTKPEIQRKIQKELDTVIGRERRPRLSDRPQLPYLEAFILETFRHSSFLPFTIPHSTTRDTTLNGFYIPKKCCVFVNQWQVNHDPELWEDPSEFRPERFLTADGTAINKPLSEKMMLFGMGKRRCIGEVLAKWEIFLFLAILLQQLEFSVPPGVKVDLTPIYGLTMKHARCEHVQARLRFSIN
Protocol: as §1

rat hepatocytes = assay: Irreversible binding of tacrine-derived radioactivity to rat hepatocytes with chloroquine; format: in vitro ADME; settings: Tacrine alone
Excerpt: D. J. Back, H. S. Purba, C. […] PHARMACOL., Vol. 32, pp. 257-264 (1983). Ethoxyresorufin O-deethylation is selectively catalyzed by P450 1A2. C. Gleizes, C. […] PHARMACOL. VOL. 41, pp. 1813-1820 (1991).

[3] = Irreversible protein binding of 14C-tacrine-derived radioactivity, rat liver microsomes; settings: 60 min
Protocol: (§2) Total reaction volume was 3 mL. Reactions were stopped by freezing in liquid nitrogen or dry-ice acetone. […] D. J. Waxman and L. Axaroff, "Phenobarbital induction of cytochrome P-450 Gene Expression", BIOCHEM J, Vol. 281, pp. 577-592 (1992); P. Soucek and I. Gut, supra.
C. N. Martin and R. C. Garner: "Covalent Binding In Vitro and In Vivo" in BIOCHEMICAL TOXICOLOGY: A PRACTICAL APPROACH, Eds. K. Snell and B. Mullock, IRL, Wash. D.C. pp. 109-126 (1987).

P4501A2 = settings: co-incubation with tacrine
Protocol: as §2

[4] = Protocol: as §2
[5] = Clinical drug interaction study, tacrine with cimetidine; format: in vivo, human; settings: 40 mg tacrine with 300-mg four times a day cimetidine vs tacrine alone
Excerpt: A. Somogyi and M. Muirhead, "Pharmacokinetic Interactions of Cimetidine", CLIN. PHARMACOKIN., Vol. 12, pp. 321-366 (1987).

[6] = cited from earlier work
[7] = Single-dose pharmacokinetic and metabolic disposition study of [14C]tacrine HCl in human male volunteers; format: in vivo; settings: for mean cumulative fecal recovery of 14C activity / mean cumulative urinary recovery of 14C activity / mean total recovery: 5760 min
Protocol: Plasma and red blood cells (RBC) were collected predose and for 48 hours postdose. Urine and feces were collected predose and for 96 hours postdose. Urine and plasma samples were analyzed directly by liquid scintillation spectrometry while RBC and fecal samples were solubilized prior to counting. […] Metabolic profiling of urine was performed by HPLC radioactivity detection. Metabolites were identified by HPLC/photodiode array/mass spectrometry.

[8] = I induced Rat, with NADPH, N = 3
[9] = MC induced Rat, with NADPH, N = 3
[10] = Noninduced Rat, with NADPH, N = 3
[11] = PB induced Rat, with NADPH, N = 3
[12] = Human Prep (letter not given), w/NADPH, 60 min

Cl.Nc1c2c(nc3ccccc13)CCCC2.O [Tacrine, 1,2,3,4-tetrahydro-9-acridinamine monohydrate monohydrochloride]
catalysis by P450 2D6 of metabolism and irreversible binding (P450 2D6): not catalyzed by P450 2D6 | 1-Hydroxytacrine (P450 2D6; 0 min): 0 nMoles per 3 mL incubate | Tacrine (P450 2D6; 0 min): 2.13 nMoles per 3 mL incubate | metabolites observed (P450 2D6; 7-hydroxytacrine at incubation times through 40 min): mainly 1-hydroxytacrine with 7-hydroxytacrine also being observed | 1-Hydroxytacrine (P450 2D6; 5 min): 0.416 nMoles per 3 mL incubate | Tacrine (P450 2D6; 5 min): 1.24 nMoles per 3 mL incubate | 1-Hydroxytacrine (P450 2D6; 10 min): 0.716 nMoles per 3 mL incubate | Tacrine (P450 2D6; 10 min): 0.831 nMoles per 3 mL incubate | 1-Hydroxytacrine (P450 2D6; 20 min): 1.03 nMoles per 3 mL incubate | Tacrine (P450 2D6; 20 min): 0.302 nMoles per 3 mL incubate | 1-Hydroxytacrine (P450 2D6; 40 min): 1.34 nMoles per 3 mL incubate | Tacrine (P450 2D6; 40 min): 0 nMoles per 3 mL incubate | 1-Hydroxytacrine (P450 2D6; 60 min): 1.43 nMoles per 3 mL incubate | Tacrine (P450 2D6; 60 min): 0 nMoles per 3 mL incubate | irreversible binding of derived radioactivity to microsomal protein (P450 1A2 [1]; Table 6, deletion of NADPH): no irreversible | Tacrine equivalents irreversibly bound to 1 mg microsomal protein (P450 1A2 [1]; Table 6, tacrine 0.3 μM, enoxacin 0.0, 20 min, N = 3, SD): 0.040 | Tacrine equivalents irreversibly bound to 1 mg microsomal protein (P450 1A2 [1]; tacrine 0.5 μM alone, 5 min, N = 3, SD): 0.022 ± 0.005 nmol | Tacrine equivalents irreversibly bound to 1 mg microsomal protein (P450 1A2 [1]; tacrine 0.5 μM alone, 10 min): 0.048 ± 0.006 nmol | Tacrine equivalents irreversibly bound to 1 mg microsomal protein (P450 1A2 [1]; tacrine 0.5 μM alone, 20 min): 0.096 ± 0.006 nmol | Tacrine equivalents irreversibly bound to 1 mg microsomal protein (P450 1A2 [1]; tacrine 0.5 μM alone, 45 min): 0.148 ± 0.024 nmol | Km (P450 1A2 [2]): < 5 µM | tacrine-equivalents bound per mg hepatic protein (rat hepatocytes; 5 min, N = 2): 0.020 nmol | tacrine-equivalents bound per mg hepatic protein (rat hepatocytes; 15 min): 0.037 nmol | tacrine-equivalents bound per mg hepatic protein (rat hepatocytes; 30 min): 0.061 nmol | tacrine-equivalents bound per mg hepatic protein (rat hepatocytes; 60 min): 0.128 nmol | tacrine-equivalents bound per mg hepatic protein (rat hepatocytes; 90 min): 0.183 nmol | tacrine-equivalents bound per mg hepatic protein (rat hepatocytes; 120 min): 0.294 nmol | tacrine-equivalents bound per mg hepatic protein (rat hepatocytes; 180 min): 0.377 nmol | Percent Bound [3, 8]: 4.62 ± 0.73% | Tacrine equivalents irreversibly bound to 1 mg microsomal protein [3, 8]: 0.042 ± 0.004 nmol | Tacrine equivalents irreversibly bound to 1 mg microsomal protein ([3]; I induced Rat, without NADPH): 0.003 nmol | Percent Bound [3, 9]: 14.5 ± 0.37% | Tacrine equivalents irreversibly bound to 1 mg microsomal protein [3, 9]: 0.139 ± 0.010 nmol | Tacrine equivalents irreversibly bound to 1 mg microsomal protein ([3]; MC induced Rat, without NADPH): 0.003 nmol | Percent Bound [3, 10]: 5.97 ± 0.68% | Tacrine equivalents irreversibly bound to 1 mg microsomal protein [3, 10]: 0.041 ± 0.001 nmol | Tacrine equivalents irreversibly bound to 1 mg microsomal protein ([3]; Noninduced Rat, without NADPH): 0.003 nmol | Percent Bound [3, 11]: 4.49 ± 0.85% | Tacrine equivalents irreversibly bound to 1 mg microsomal protein [3, 11]: 0.034 ± 0.006 nmol | Tacrine equivalents irreversibly bound to 1 mg microsomal protein ([3]; PB induced Rat, without NADPH): 0.002 nmol | Tacrine equivalents irreversibly bound to 1 mg microsomal protein ([3]; Table 3, MC induced Rat, NADPH, N = 3): 0.139 ± 0.010 nmol | effect on 1-hydroxytacrine metabolism by P4501A2 (P4501A2): inhibited | 1-OH [4, 12]: 0.750 nmole equivalents | 4-OH [4, 12]: 0.039 nmole equivalents | POLAR UNKS [4, 12]: 0.039 nmole equivalents | UNKS [4, 12]: 0.146 nmole equivalents | TAC ([4]; Human Prep (letter not given), w/out NADPH, 60 min): 1.34 nmole equivalents | 1-OH ([4]; Human Prep C, w/NADPH, 60 min): 0.599 nmole equivalents | 2-OH ([4]; Human Prep C, w/NADPH, 60 min): 0.095 nmole equivalents | POLAR UNKS ([4]; Human Prep C, w/NADPH, 60 min): 0.035 nmole equivalents | UNKS ([4]; Human Prep C, w/NADPH, 60 min): 0.139 nmole equivalents | TAC ([4]; Human Prep C, w/out NADPH, 60 min): 1.07 nmole equivalents | 1-OH ([4]; Human Prep D, w/NADPH, 60 min): 0.201 nmole equivalents | TAC ([4]; Human Prep D, w/NADPH, 60 min): 0.803 nmole equivalents | TAC ([4]; Human Prep D, w/out NADPH, 60 min): 1.086 nmole equivalents | extent of metabolism ([4]; human liver preparation D): only partial tacrine turnover | major product detected ([4]; human liver preparations): 1-hydroxytacrine with minor amounts of the 2- and 4-hydroxytacrine regioisomers | extent of metabolism ([4]; human liver preparations B and C, within 60 min): completely metabolized | higher plasma concentrations [5]: approximately 40% | extent of metabolism ([6]; animals and man): extensively metabolized | formation of THA metabolites in serum ([6]; patients given THA): very rapid formation of THA metabolites | liver enzymes after administration ([6]; patients): elevations of liver enzymes are found in some patients | Mean AUC(O-tldc) for tacrine, 1-, 2-, and 4-hydroxytacrine as part of total mean plasma radioactivity AUC(O-tldc) ([7]; 10 mg oral): approximately 3% | Mean AUC(O-tldc) for tacrine, 1-, 2-, and 4-hydroxytacrine as part of total mean plasma radioactivity AUC(O-tldc) ([7]; 40 mg oral): ~4% | mean cumulative fecal recovery of 14C activity ([7]; 10-mg oral): 23.2 % of dose | mean cumulative urinary recovery of 14C activity ([7]; 10-mg oral): 56.5 % of dose | mean total recovery ([7]; 10-mg oral): 79.4% | mean plasma total radioactivity AUC(O-tldc), dose proportionality ([7]; 10 and 40 mg oral): increased in a dose proportional manner | mean AUC(O-tldc), dose proportionality ([7]; 10 and 40 mg oral, plasma): increased greater than dose proportionally | difference in metabolic profiles between dose levels ([7]; 10 vs 40 mg, urine): No apparent differences | mean cumulative fecal recovery of 14C activity ([7]; 40-mg oral): 20.8% | mean cumulative urinary recovery of 14C activity ([7]; 40-mg oral): 54.1% | mean total recovery ([7]; 40-mg oral): 74.9% | Tmax ([7]; human, plasma, po, read-out: Time to maximum plasma concentration (tmax)): ~2 h | polar radioactive components, of urinary radioactivity ([7]; urine through 24 hours): 67% | unchanged drug excreted in urine ([7]; urine through 24 hours): only trace amounts of unchanged drug excreted
